In this assay the test system is HepG2 LDLR mRNA, qPCR, 6 h. In words: cholesterol-dependence of LDLR transcript changes – cell-based, HepG2, RT-PCR, cherry-picked dose, mechanism study for Trib1 inducer project, late-stage follow-up (AID 1053161). Particulars: hits give high values.

For orientation: fold induction means the signal under treatment as a multiple of the control signal. On to `CN1C(=O)c2cc(NC(=O)c3ccc(C(F)(F)F)cc3)ccc2OC[C@@H]2O[C@H](CC(=O)NC3Cc4ccccc4C3)CC[C@@H]21`, for which the fold induction was 2.5.
